Source: patent US20180203025A1, “HDL THERAPY MARKERS” (Cerenis Therapeutics Holding SA, priority 2014, published 2018)

Legend:
[1] = test system: SREBP-2 mRNA in mouse macrophages (J774); experiment: SREBP-2 gene expression (real-time PCR) in J774 macrophages; type: cell-based; conditions: Study P; 0.03 to 30 mM; 6 hours
Procedure: (§1) The mRNA regulation of those genes expressing ABCA1, ABCG1 and SR-BI is linked to nuclear proteins as LXR, SREBP1 and SREBP2. […] Gene expression was assayed using the protocols described in Sections 8.3.2 (RNA extraction); 8.3.4 (reverse transcription), and 8.3.5 (qPCR). SREBP-1, SREBP-2 and LXR gene expression levels were determined with Taqman probe (Mm01138344.m1, Mm01306292.m1, Mm00443451.m1 respectively) according to the manufacturer's protocol. The reference gene used is HPRT1 (Taqman probe: Mm00446968.m1).
(§2) This study used β-cyclodextrin to examine the effect of β-cyclodextrin on LXR, SREBP1 and SREBP2 mRNA expression in J774 macrophages. J774 were seeded on 6 well plates (300,000 cells/well). β-cyclodextrin (0.03, 0.1, 0.3, 1, 3, 10 and 30 mM) was added for 6 hours on the macrophages and the RNA were extracted with the RiboPure™ kit according to the manufacturer's protocol. Gene expression was assayed using the protocols described in Sections 8.3.2 (RNA extraction); 8.3.4 (reverse transcription), and 8.3.5 (qPCR). SREBP-1, SREBP-2 and LXR gene expression were determined with Taqman probe (Mm01138344.m1, Mm01306292.m1, Mm00443451.m1 respectively) according to the manufacturer's protocol. The reference gene used is HPRT1 (Taqman probe: Mm00446968.m1).

[2] = test system: LXR mRNA in mouse macrophages (J774); experiment: LXR gene expression (real-time PCR) in J774 macrophages; type: cell-based; conditions: Study P; 0.03 to 30 mM; 6 hours
Procedure: as §1, §2

[3] = CHI SQUARE plasma ApoA-I, phospholipid and total cholesterol after infusion; type: in vivo, human
Description: (§3) 504 subjects presenting with acute chest pain or other angina equivalent symptoms, indicative of a diagnosis of ST segment elevation myocardial infarction, non-ST elevation myocardial infarction or unstable angina were enrolled. To be eligible, subjects must have angiographic evidence of coronary artery disease as defined by at least one lesion in any of the three major native coronary arteries that has >20% reduction in lumen diameter by angiographic visual estimation or prior history of percutaneous coronary intervention (“PCI”). The target vessel for PCI was not the target coronary artery for research IVUS, and any vessel with previous PCI could not be used as the target coronary artery.

CHI SQUARE tolerability = type: in vivo, human; conditions: 3, 6, and 12 mg/kg
Description: as §3

[4] = test system: ABCA1 mRNA in HepG2 (human hepatocytes); experiment: ABCA1 mRNA in HepG2 hepatocytes; type: cell-based; conditions: Study K, 0.25, 25 and 250 μg/mL, 6 hours
Procedure: (§4) HepG2 (human hepatocytes) and Hepa1-6 (mouse hepatocytes) were seeded on 6 well plates (300,000 cells/well) in DMEM 10% FCS. […] Gene expression was assayed using the protocols described in Sections 8.3.2 (RNA extraction); 8.3.4 (reverse transcription), and 8.3.5 (qPCR). ABCA1 (Taqman probe Hs01059118.m1 and Mm00442646.m1 for respectively HepG2 and Hepa1-6) and SR-BI (Taqman probe Hs00969821.m1 and Mm00450234.m1 for respectively HepG2 and Hepa1-6) expression was determined according to the manufacturer's protocol. The reference gene used is HPRT1 (Taqman probe: Mm00446968.m1) for Hepa1-6 and GAPDH (Taqman probe: Hs03929097.g1) for HepG2 cells.

[5] = test system: SR-BI mRNA in HepG2 (human hepatocytes); experiment: SR-BI mRNA in HepG2 hepatocytes; type: cell-based; conditions: Study K, 0.25, 25 and 250 μg/mL, 6 hours
Procedure: as §4

[6] = test system: ligatured carotid from apoE−/− mice; experiment: Cholesterol content of ligatured left carotids, apoE−/− mice on high fat diet; type: in vivo, mouse; conditions: 8 injections
Procedure: The formulation was injected in the retro-orbital vein (50 μL/mouse) of mice anaesthetized with isoflurane, once every 2 days for 8 injections. The dose administered was based on the mean of mice bodyweight in each cage. The compounds were injected at 10 AM every day. For blood sampling, mice fasted overnight were sampled once at the indicated dose: (1) at predose (at 9 AM) by retro-orbital withdrawal: 24 hours before the first injection/day of surgery; (2) at postdose (at 9 AM) by retro-orbital withdrawal: 24 hours after the last injection; and (3) at t=0 (9 AM) and the indicated time points after the 5th injection by caudal withdrawal. Immediately after collection, blood samples were kept at ca. +4° C. to avoid alteration of the blood sample. Blood specimens were centrifuged (800×g for 10 minutes at +4° C.) and plasma was saved for future analysis.
This study examined the effect of CER-001 administration on plaque progression in ligatured carotid from apoE^−/− mice fed with a high fat diet. For each group of mice, the cholesterol content of the carotid was tested after lipid extraction and HPLC analysis. The ligatured carotids were collected the day of sacrifice and stored at −80° C. The lipids were extracted with an organic solution and the cholesterol concentration was determined by HPLC.
Ligatured carotids were lipid extracted according to the method of Section 9.2.9. The surgical straps were removed from the carotid (fresh weight) and the tissue was introduced in a glass tube. To this was added 1.8 mL of CHCl3/MeOH (2:1) and mixed overnight at 4° C. The carotid was then removed, dried and weighed and the organic solution (CHCl3/MeOH) was split in two glass tubes in equal volumes. For unesterified cholesterol (UC), 100 μL of β-sitosterol (internal standard) was added and the solution was dried. To this was added 200 μL EtOH for solubilisation of the sample and the sample was analyzed UC by HPLC. […] To this was added 200 μL EtOH for solubilisation of the sample and analysed TC by HPLC. The cholesterol concentration was determined by HPLC according to the method of Section 9.2.7. […]

[7] = Infusion 1, preserved at Infusion 6

## OC[C@H]1O[C@@H]2O[C@H]3[C@H](O)[C@@H](O)[C@@H](O[C@H]4[C@H](O)[C@@H](O)[C@@H](O[C@H]5[C@H](O)[C@@H](O)[C@@H](O[C@H]6[C@H](O)[C@@H](O)[C@@H](O[C@H]7[C@H](O)[C@@H](O)[C@@H](O[C@H]8[C@H](O)[C@@H](O)[C@@H](O[C@H]1[C@H](O)[C@H]2O)O[C@@H]8CO)O[C@@H]7CO)O[C@@H]6CO)O[C@@H]5CO)O[C@@H]4CO)O[C@@H]3CO [β-cyclodextrin, reference compound]
[1]
  SREBP-2 mRNA: increased for the lowest dose of β-cyclodextrin and reached a plateau
[2]
  LXR mRNA: No significant changes

## CER-001: engineered recombinant human apolipoprotein A-I HDL with sphingomyelin and DPPG; protein-to-phospholipid ratio 1:2.7, 97% Sph and 3% DPPG
[3]; CER-001 at 3 mg/kg
  potency (plasma total cholesterol increase) relative to ETC-216: comparable to ETC-216 at 15 mg/kg
[3]; [7]
  plasma apolipoprotein A-I after IV administration: increases in a dose-dependent manner
  plasma phospholipids after IV administration: increase in a dose dependent manner
  plasma total cholesterol after IV administration: increases in a dose-dependent manner
[3]; in vivo
  slope ratio of phospholipids and ApoA-I dose response curves: 2.8
CHI SQUARE tolerability
  tolerability: well-tolerated overall
  toxicities in laboratory parameters: no apparent dose-related toxicities in laboratory parameters
[4]
  ABCA1 mRNA level: No significant decrease
[5]
  SR-BI mRNA level: No significant decrease
[6]; 2, 5 and 10 mg/kg
  decrease in total cholesterol contents in ligatured carotids: 50%
  decrease in unesterified cholesterol in ligatured carotids: 25%
[6]; 20 and 50 mg/kg
  inhibition of plaque progression: around 10%
